In patent US20250270190A1, “KIT INHIBITORS” (BLUEPRINT MEDICINES CORPORATION, priority 2022, published 2025) one finds IC50 data, which are given here for 22 compounds.

Structures are written as SMILES. pIC50: −log10 of the molar value.

The experiment deals with T1, c-kit autophosphorylation (Phospho c-Kit Tyr721) in HMC 1.1 (exon 11/13) cells, V654A (Homo sapiens, UniProt P10721, V560G/V654A).
T1 construct: endogenous in cells; host or cells: HMC 1.1 (exon 11/13) cells
T1 sequence (P10721 26-976 V560G/V654A): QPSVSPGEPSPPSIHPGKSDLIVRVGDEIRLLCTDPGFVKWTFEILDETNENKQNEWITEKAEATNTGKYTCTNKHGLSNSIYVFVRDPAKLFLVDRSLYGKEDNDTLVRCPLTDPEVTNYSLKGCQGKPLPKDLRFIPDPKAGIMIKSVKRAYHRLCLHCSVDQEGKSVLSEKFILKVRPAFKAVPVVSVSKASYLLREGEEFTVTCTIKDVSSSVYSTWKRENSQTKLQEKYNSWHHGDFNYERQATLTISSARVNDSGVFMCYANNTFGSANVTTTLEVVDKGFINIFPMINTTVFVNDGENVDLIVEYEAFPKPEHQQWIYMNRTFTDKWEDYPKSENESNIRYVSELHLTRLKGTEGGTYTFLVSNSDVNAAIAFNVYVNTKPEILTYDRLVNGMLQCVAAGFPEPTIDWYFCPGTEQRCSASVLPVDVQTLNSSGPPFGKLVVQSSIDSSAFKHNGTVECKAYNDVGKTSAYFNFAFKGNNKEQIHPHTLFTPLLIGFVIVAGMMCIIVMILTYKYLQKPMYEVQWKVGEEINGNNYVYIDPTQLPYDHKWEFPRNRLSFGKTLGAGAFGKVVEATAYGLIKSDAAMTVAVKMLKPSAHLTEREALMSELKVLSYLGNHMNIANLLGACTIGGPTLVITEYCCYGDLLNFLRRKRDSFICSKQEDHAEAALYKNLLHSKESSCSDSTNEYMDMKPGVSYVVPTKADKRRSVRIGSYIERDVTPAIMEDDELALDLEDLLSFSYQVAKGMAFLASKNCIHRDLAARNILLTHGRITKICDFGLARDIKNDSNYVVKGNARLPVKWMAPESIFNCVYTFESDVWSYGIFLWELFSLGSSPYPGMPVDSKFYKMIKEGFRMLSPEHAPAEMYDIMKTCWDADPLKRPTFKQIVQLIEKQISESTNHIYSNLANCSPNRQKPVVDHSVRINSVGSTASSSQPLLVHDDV
Description: pKIT Meso Scale Discovery (MSD) assay, inhibition of autophosphorylation of KIT, HMC1.1_V654A. Type of experiment: cell-based. Particulars: Table 1, cell line not named for Table 1, b1056 names pKIT HMC1.1_V654A, read-out: Code (IC50 for inhibition of autophosphorylation of KIT, pKIT MSD assay). The source says:
In this MSD assay, specific capture antibodies for the analytes were coated in arrays in each well of a 96-well carbon electrode plate surface. The detection system used SULFO-TAG™ labels that emit light upon electrochemical stimulation initiated at the electrode surfaces of the […] and MULTI-SPOT® plates. The electrical stimulation was decoupled from the output signal, which was light and generated assays with minimal background. The goal of this assay was to assess the percent inhibition of autophosphorylation of c-kit in cells when treated with compounds of the disclosure in a dose-dependent manner.
HMC1.1 cells were maintained in IMDM media supplemented with 20% Calf Serum with Iron and 100 units/mL Penicillin-Streptomycin and grown in a 37° C. humidified tissue culture incubator. HMC1.1 cells were passaged by 1:5 dilution into fresh IMDM media supplemented with 20% Calf Serum with Iron and 100 units/mL Penicillin-Streptomycin every 5-7 days and were discarded after 20 passages.
Seeding was performed as follows: HMC cells were brought to 1×10^6 cells/mL in fresh phenol red free, serum-free, iron-free IDM media with Pen/Strep; cells were seeded/plated into respective U-bottom plate by dispensing 50 μL/well (50,000 cells) using the Multidrop, and covered and incubated cells at 37° C. in a humidified tissue culture incubator for 4 hours (starvation).
Dosing was performed as follows: The compound mother plate was prepared by adding 16 μL of compound to 24 μL of DMSO to row A, odd-numbered columns of screen matrix plate. […] Intermediate plates were prepared in V-bottom plates by dispensing 98 μL of phenol red free, serum free IMDM media with Pen/Strep into all wells. 2 μL DMSO or 2 μL 10 mM staurosporine was added to appropriate control wells. At the end of four hours, the Bravo protocol 10 cpds vertical dose MSD 2 U-plates 96-well was used to: add 2 μL from the compound plate to the intermediate plate and dose cells with 7 μL from the intermediate plate. The cells were covered and incubated at 37° C. in a humidified tissue culture incubator for 90 min. The complete lysis buffer was prepared with AlphaLISA 5× Lysis Buffer supplemented with 1× protease inhibitor cocktail and kept on ice. The cells were pelleted by centrifuging plate at 2500×g for 5 min, 4° C. and media removed. Complete lysis buffer was added (14 μL/well). The cells were covered and shaken at 4° C. on a plate shaker at 600 rpm for 30 min and kept cold
The MSD protocol was preformed as follows: Tris Wash Buffer (2L) was prepared by diluting 10× stock of Tris Wash Buffer to 1× in water. Blocking Solution was prepared by dissolving 600 mg Blocker A in 20 mL 1× Trish Wash Buffer (per plate). The Antibody Dilution Buffer was prepared by mixing 1 mL Blocking solution and 2 mL 1× Trish Wash Buffer (per plate) and kept on ice. Blocking Solution was added (150 μL/well) to each MSD plate using a multichannel repeater pipette. The plate was covered and incubated at room temperature on a plate shaker at 700 rpm for hr. The Bio Tek protocol RL-96w-wash-MSD_stacker_fromC was used to wash plates 3× with 150 μL/well. Cells were pelleted by centrifuging lysate plates at 2500×g for 5 mins. The Bravo protocol was used (transfer 25 ul supernatants from V-96 to assay plate) to transfer 25 μL sample lysate per well to each MSD plate. The plates were covered and incubated at room temperature on a plate shaker at 700 rpm for hr. The Bio Tek protocol RL-96w-wash-MSD_stacker_fromC was used to wash plates 3× with 150 μL/well. The Detection Antibody Solution was prepared by diluting the 60 μL of the 50× antibody stock in 2.94 mL of the Antibody Dilution Buffer (per plate) and kept on ice. 25 μL/well of detection antibody solution was added to each MSD plate. The plates were covered and incubated at room temperature on a plate shaker at 700 rpm for 1 hr. The Read Buffer was prepared by diluting 5 mL of 4× stock of Read Buffer to 1× in 15 mL water (per plate).
As to `CCNc1cc(Nc2cc(N)nc(C(F)F)n2)ncc1C(=O)NC1CC1` [Compound 39, 6-((6-amino-2-(difluoromethyl)pyrimidin-4-yl)amino)-N-cyclopropyl-4-(ethylamino)nicotinamide], the pIC50 is > 8.00.
With `C[C@@H](CF)Nc1cc(Nc2cc(N)nc(C(F)F)n2)ncc1C(=O)NC1CC1` [Compound 90, (S)-6-((6-amino-2-(difluoromethyl)pyrimidin-4-yl)amino)-N-cyclopropyl-4-((1-fluoropropan-2-yl)amino)nicotinamide], the pIC50 was > 8.00.
For `CNc1cc(Nc2cc(N)nc(C(F)F)n2)ncc1C(=O)NCc1ccccn1` [Compound 93, 6-((6-amino-2-(difluoromethyl)pyrimidin-4-yl)amino)-4-(methylamino)-N-(pyridin-2-ylmethyl)nicotinamide], the pIC50 is 7.40 to 8.00.
Turning to `CN1CC(n2cc(-c3cnc(Nc4cc(N)nc(C(F)F)n4)cc3OC[C@H]3CCCO3)cn2)C1` [Compound 202, (R)-2-(difluoromethyl)-N4-(5-(1-(1-methylazetidin-3-yl)-1H-pyrazol-4-yl)-4-((tetrahydrofuran-2-yl)methoxy)pyridin-2-yl)pyrimidine-4,6-diamine], the pIC50 was 7.40 to 8.00.
For `[2H]C([2H])([2H])Nc1cc(Nc2cc(N)nc(C(F)F)n2)ncc1C(=O)NC` [Compound 5, 6-((6-amino-2-(difluoromethyl)pyrimidin-4-yl)amino)-N-methyl-4-((methyl-d3)amino)nicotinamide], the pIC50 was > 8.00.
The figure for `CC(C)Oc1cc(Nc2cc(N)nc([C@H](C)F)n2)ncc1-c1cnn([C@H]2CCOC2)c1` (single isomer, unassigned) [Compound 157, 2-((S)-1-fluoroethyl)-N4-(4-isopropoxy-5-(1-((S)-tetrahydrofuran-3-yl)-1H-pyrazol-4-yl)pyridin-2-yl)pyrimidine-4,6-diamine or 2-((S)-1-fluoroethyl)-N4-(4-isopropoxy-5-(1-((R)-tetrahydrofuran-3-yl)-1H-pyrazol-4-yl)pyridin-2-yl)pyrimidine-4,6-diamine] is > 8.00.
As to `CCC(C)CNc1cc(Nc2cc(N)nc(C(F)F)n2)ncc1C(=O)NC` (stereo not shown) [Compound 65, 6-((6-amino-2-(difluoromethyl)pyrimidin-4-yl)amino)-N-methyl-4-((2-methylbutyl)amino)nicotinamide], the pIC50 is 7.40 to 8.00.
Turning to `CNC(C)Cn1cc(-c2cnc(Nc3cc(N)nc(C(F)F)n3)cc2OC2CC2)cn1` (stereo not shown) [Compound 170, N4-(4-cyclopropoxy-5-(1-(2-(methylamino)propyl)-1H-pyrazol-4-yl)pyridin-2-yl)-2-(difluoromethyl)pyrimidine-4,6-diamine], the pIC50 is > 8.00.
On to `CCOc1cc(Nc2cc(N)nc(C(F)F)n2)ncc1-c1cnn(C)c1` [Compound 34, 2-(difluoromethyl)-N4-(4-ethoxy-5-(1-methyl-1H-pyrazol-4-yl)pyridin-2-yl)pyrimidine-4,6-diamine], for which the pIC50 is > 8.00.
For `CNC(=O)c1cnc(Nc2cc(N)nc(CF)n2)cc1N[C@@H]1CCOC1` [Compound 35, (R)-6-((6-amino-2-(fluoromethyl)pyrimidin-4-yl)amino)-N-methyl-4-((tetrahydrofuran-3-yl)amino)nicotinamide], the negative-log IC50 (pIC50) is < 7.40.
With `CNc1cc(Nc2cc(N)nc(CF)n2)ncc1C(=O)NC1CC1` [Compound 7, 6-((6-amino-2-(fluoromethyl)pyrimidin-4-yl)amino)-N-cyclopropyl-4-(methylamino)nicotinamide], the pIC50 is 7.40 to 8.00.
To `C[C@H](CF)Oc1cc(Nc2cc(N)nc(C(F)F)n2)ncc1-c1cnn(C)c1` (single isomer, unassigned) [Compound 88, (R)-2-(difluoromethyl)-N4-(4-((1-fluoropropan-2-yl)oxy)-5-(1-methyl-1H-pyrazol-4-yl)pyridin-2-yl)pyrimidine-4,6-diamine or (S)-2-(difluoromethyl)-N4-(4-((1-fluoropropan-2-yl)oxy)-5-(1-methyl-1H-pyrazol-4-yl)pyridin-2-yl)pyrimidine-4,6-diamine] belongs > 8.00; to `CCNc1cc(Nc2cc(N)nc([C@H](C)F)n2)ncc1C(=O)NC` [Compound 11, (S)-6-((6-amino-2-(1-fluoroethyl)pyrimidin-4-yl)amino)-4-(ethylamino)-N-methylnicotinamide], > 8.00; to `CNC(=O)c1cnc(Nc2cc(N)nc(C(F)F)n2)cc1N[C@H](C)C(F)F` [Compound 73, (R)-6-((6-amino-2-(difluoromethyl)pyrimidin-4-yl)amino)-4-((1,1-difluoropropan-2-yl)amino)-N-methylnicotinamide], > 8.00.
For `CNC(=O)c1cnc(Nc2cc(N)nc(C(F)F)n2)cc1NCCC(C)C` [Compound 66, 6-((6-amino-2-(difluoromethyl)pyrimidin-4-yl)amino)-4-(isopentylamino)-N-methylnicotinamide], the pIC50 was 7.40 to 8.00.
The figure for `CNC(=O)c1cnc(Nc2cc(N)nc(CF)n2)cc1NC1CC1` [Compound 8, 6-((6-amino-2-(fluoromethyl)pyrimidin-4-yl)amino)-4-(cyclopropylamino)-N-methylnicotinamide] is > 8.00; for `CNc1cc(Nc2cc(N)nc(C(F)F)n2)ncc1C(=O)NCC#N` [Compound 22, 6-((6-amino-2-(difluoromethyl)pyrimidin-4-yl)amino)-N-(cyanomethyl)-4-(methylamino)nicotinamide] it is < 7.40; for `COc1cc(Nc2cc(N)nc(C(F)F)n2)ncc1-c1cnn(C(F)F)c1` [Compound 70, 2-(difluoromethyl)-N4-(5-(1-(difluoromethyl)-1H-pyrazol-4-yl)-4-methoxypyridin-2-yl)pyrimidine-4,6-diamine] it is > 8.00.
Take `Nc1cc(Nc2cc(OC3CC3)c(-c3cnn(C4COC4)c3)cn2)nc(C(F)F)n1` [Compound 133, N4-(4-cyclopropoxy-5-(1-(oxetan-3-yl)-1H-pyrazol-4-yl)pyridin-2-yl)-2-(difluoromethyl)pyrimidine-4,6-diamine]: the pIC50 was > 8.00.
Regarding `Nc1cc(Nc2cc(OC3CC3)c(-c3cnn([C@@H]4CCNC4)c3)cn2)nc(C(F)F)n1` (single isomer, unassigned) [Compound 160, (R)-N4-(4-cyclopropoxy-5-(1-(pyrrolidin-3-yl)-1H-pyrazol-4-yl)pyridin-2-yl)-2-(difluoromethyl)pyrimidine-4,6-diamine or (S)-N4-(4-cyclopropoxy-5-(1-(pyrrolidin-3-yl)-1H-pyrazol-4-yl)pyridin-2-yl)-2-(difluoromethyl)pyrimidine-4,6-diamine], the pIC50 was > 8.00.
Take `Nc1cc(Nc2cc(NC3CC3)c(C(=O)N[C@H]3C[C@@H](O)C3)cn2)nc(C(F)F)n1` [Compound 123, 6-((6-amino-2-(difluoromethyl)pyrimidin-4-yl)amino)-4-(cyclopropylamino)-N-((1s,3s)-3-hydroxycyclobutyl)nicotinamide]: the pIC50 was 7.40 to 8.00.
In the case of `CNC(C)(C)Cn1cc(-c2cnc(Nc3cc(N)nc(C(F)F)n3)cc2OC2CC2)cn1` [Compound 184, N4-(4-cyclopropoxy-5-(1-(2-methyl-2-(methylamino)propyl)-1H-pyrazol-4-yl)pyridin-2-yl)-2-(difluoromethyl)pyrimidine-4,6-diamine], the pIC50 is > 8.00.

The pIC50 is the negative decadic logarithm of the IC50, by convention in mol/L.
